Reference: ChEMBL document CHEMBL4402609, “Optimization of Hydantoins as Potent Antimycobacterial Decaprenylphosphoryl-β-d-Ribose Oxidase (DprE1) Inhibitors” (J Med Chem, 2020)

assay: Lipophilicity, log D of compound at pH 7.4 by chromatographic method; format: physicochemical; conditions: buffer

Row | Compound | chromatographic logD
1 | C[C@]1(c2ccc(S(N)(=O)=O)cc2)NC(=O)N(CC(=O)c2ccc(F)cc2F)C1=O | 3.17
2 | C[C@@]1(c2ccc(S(N)(=O)=O)cc2)NC(=O)N(CC(=O)c2ccc(F)cc2F)C1=O | 3.17
3 | CC1(c2ccc(S(=O)(=O)Nc3ccccc3)cc2)NC(=O)N(CC(=O)c2ccc(F)cc2F)C1=O (racemic) | 5.03
4 | CCCCS(=O)(=O)Nc1ccc(C2(C)NC(=O)N(CC(=O)c3ccc(F)cc3F)C2=O)cc1 (racemic) | 4.96
5 | CC1(c2ccc(C#N)cc2)NC(=O)N(CC(=O)c2ccc(Cl)s2)C1=O (racemic) | 4.85
6 | CC1(c2ccc(S(N)(=O)=O)cc2)NC(=O)N(CC(=O)c2cccc(C(F)(F)F)c2)C1=O (racemic) | 3.96
7 | CC1(c2ccc(S(N)(=O)=O)cc2)NC(=O)N(CC(=O)c2ccc(F)cc2F)C1=O (racemic) | 3.19
8 | CC1(c2ccc(S(N)(=O)=O)cc2)NC(=O)N(CC(=O)C23CC4CC(CC(C4)C2)C3)C1=O (racemic) | 2.52
9 | CC1(c2ccc(S(N)(=O)=O)cc2)NC(=O)N(CC(=O)c2ccc(F)c(Cl)c2)C1=O (racemic) | 3.82
10 | CC(=O)CN1C(=O)NC(C)(c2ccc(S(N)(=O)=O)cc2)C1=O (racemic) | 0.54
11 | CC1(c2ccc(S(N)(=O)=O)cc2)NC(=O)N(CC(=O)c2ccccc2C(F)(F)F)C1=O (racemic) | 3.56
12 | CC1(c2ccc(S(N)(=O)=O)cc2)NC(=O)N(CC(=O)c2ccc3ccccc3c2)C1=O (racemic) | 3.93
13 | CNS(=O)(=O)c1ccc(C2(C)NC(=O)N(CC(=O)c3ccc(F)cc3F)C2=O)cc1 (racemic) | 3.88
14 | CN(C)S(=O)(=O)c1ccc(C2(C)NC(=O)N(CC(=O)c3ccc(F)cc3F)C2=O)cc1 (racemic) | 4.6
15 | CC1(c2ccc(C#N)cc2)NC(=O)N(CC(=O)c2ccccc2F)C1=O (racemic) | 4.3
16 | CC1(c2ccc(NS(=O)(=O)C(F)(F)F)cc2)NC(=O)N(CC(=O)c2ccc(F)cc2F)C1=O (racemic) | 3.24
17 | CC1(c2ccc(S(N)(=O)=O)cc2)NC(=O)N(CC(=O)c2ncc(F)cc2F)C1=O (racemic) | 2.39
18 | CC1(c2ccc(S(N)(=O)=O)cc2)NC(=O)N(CC(=O)c2nc3ccccc3s2)C1=O (racemic) | 3.78
19 | Cc1cccc(C(=O)CN2C(=O)NC(C)(c3ccc(S(N)(=O)=O)cc3)C2=O)c1 (racemic) | 3.36
20 | CC1(c2ccc3c(c2)NC(=O)CO3)NC(=O)N(CC(=O)c2ccc(F)cc2F)C1=O (racemic) | 3.38
21 | CC1(c2ccc(S(N)(=O)=O)cc2)NC(=O)N(CC(=O)c2cccnc2)C1=O (racemic) | 3.48
22 | CC1(c2ccc(-c3nnn[nH]3)cc2)NC(=O)N(CC(=O)c2ccc(F)cc2F)C1=O (racemic) | 1.85
23 | CC1(c2ccc(CS(C)(=O)=O)cc2)NC(=O)N(CC(=O)c2ccc(F)cc2F)C1=O (racemic) | 3.54
24 | CC1(c2ccc(S(N)(=O)=O)cc2)NC(=O)N(CC(=O)c2ccncc2)C1=O (racemic) | 2.46

Row | Compound | chromatographic logD
25 | CC1(c2ccc(NC(N)=O)cc2)NC(=O)N(CC(=O)c2ccc(F)cc2F)C1=O (racemic) | 2.71
26 | CC1(c2ccc(C#N)cc2)NC(=O)N(CC(=O)c2ccc(F)c(C(F)(F)F)c2)C1=O (racemic) | 5.38
27 | CC1(c2ccc(S(N)(=O)=O)cc2)NC(=O)N(CC(=O)c2ccc(Cl)s2)C1=O (racemic) | 3.52
28 | CC1(c2ccc(S(N)(=O)=O)cc2)NC(=O)N(CC(=O)c2ccc(Cl)cc2Cl)C1=O (racemic) | 4.11
29 | CC1(c2ccc(S(N)(=O)=O)cc2)NC(=O)N(CC(=O)C2CC2)C1=O (racemic) | 1.51
30 | CC1(c2ccc(S(N)(=O)=O)cc2)NC(=O)N(CC(=O)c2ccc(C(F)(F)F)cc2)C1=O (racemic) | 4.15
31 | CC1(c2ccc(S(N)(=O)=O)cc2)NC(=O)N(CC(=O)c2nccs2)C1=O (racemic) | 1.9
32 | CC1(c2ccc(S(N)(=O)=O)cc2)NC(=O)N(CC(=O)c2cccc(F)c2)C1=O (racemic) | 3.08
33 | COc1ccccc1C(=O)CN1C(=O)NC(C)(c2ccc(S(N)(=O)=O)cc2)C1=O (racemic) | 2.98
34 | Cc1ccc(C(=O)CN2C(=O)NC(C)(c3ccc(S(N)(=O)=O)cc3)C2=O)cc1 (racemic) | 3.33
35 | CC1(c2ccc(S(N)(=O)=O)cc2)NC(=O)N(CC(=O)c2ccccc2)C1=O (racemic) | 2.81
36 | CC1(c2ccc(S(N)(=O)=O)cc2)NC(=O)N(CC(=O)c2cccc(OC(F)(F)F)c2)C1=O (racemic) | 4.14
37 | CC1(c2ccc(C#N)cc2)NC(=O)N(CC(=O)c2cccc(F)c2)C1=O (racemic) | 4.39
38 | Cc1ccccc1C(=O)CN1C(=O)NC(C)(c2ccc(S(N)(=O)=O)cc2)C1=O (racemic) | 3.3
39 | COc1ccc(C(=O)CN2C(=O)NC(C)(c3ccc(S(N)(=O)=O)cc3)C2=O)cc1 (racemic) | 2.86
40 | CC1(c2ccc(S(N)(=O)=O)cc2)NC(=O)N(CC(=O)c2cccc(C#N)c2)C1=O (racemic) | 2.4
41 | CC1(c2ccc(S(N)(=O)=O)cc2)NC(=O)N(CC(=O)c2ccccn2)C1=O (racemic) | 4.87
42 | Cc1ccccc1C(=O)CN1C(=O)NC(C)(c2ccc(C#N)cc2)C1=O (racemic) | 4.73
43 | CC1(c2ccc(S(=O)(=O)NCC(F)(F)F)cc2)NC(=O)N(CC(=O)c2ccc(F)cc2F)C1=O (racemic) | 4.78
44 | COc1cccc(C(=O)CN2C(=O)NC(C)(c3ccc(S(N)(=O)=O)cc3)C2=O)c1 (racemic) | 3
45 | CC1(c2ccc(S(N)(=O)=O)cc2)NC(=O)N(CC(=O)c2cccc([N+](=O)[O-])c2)C1=O (racemic) | 2.77
46 | CC(C)(C)C(=O)Oc1cc(F)ccc1C(=O)CN1C(=O)NC(C)(c2ccc(C#N)cc2)C1=O (racemic) | 5.84
47 | CC1(c2ccc(C(=O)O)cc2)NC(=O)N(CC(=O)c2ccc(F)cc2F)C1=O (racemic) | 1.49
48 | CC1(c2ccc(C#N)cc2)NC(=O)N(CC(=O)c2ccccn2)C1=O (racemic) | 2.03

Row | Compound | chromatographic logD
49 | CC1(c2ccc(C(N)=O)cc2)NC(=O)N(CC(=O)c2ccc(F)cc2F)C1=O (racemic) | 2.68
50 | CC1(c2ccc(C#N)cc2)NC(=O)N(CC(=O)c2ccc(F)cc2O)C1=O (racemic) | 4.56
51 | Cc1cccc(C(=O)CN2C(=O)NC(C)(c3ccc(C#N)cc3)C2=O)c1 (racemic) | 4.71
52 | CC1(c2ccc(C#N)cc2)NC(=O)N(CC(=O)c2ccncc2)C1=O (racemic) | 1.16
53 | CC1(c2ccc(C#N)cc2)NC(=O)N(CC(=O)c2cccc(OC(F)(F)F)c2)C1=O (racemic) | 5.5
54 | CC1(c2ccc(S(N)(=O)=O)cc2)NC(=O)N(CC(=O)c2cccs2)C1=O (racemic) | 2.35
55 | CC1(c2ccc(N3CCCOC3=O)cc2)NC(=O)N(CC(=O)c2ccc(F)cc2F)C1=O (racemic) | 3.36
56 | CC1(c2ccc(S(=O)(=O)NC3CC3)cc2)NC(=O)N(CC(=O)c2ccc(F)cc2F)C1=O (racemic) | 4.48
57 | CC1(c2ccc(S(N)(=O)=O)cc2)NC(=O)N(CC(=O)c2ccc(F)cc2O)C1=O (racemic) | 3.12
58 | Cc1ccc(C(=O)CN2C(=O)NC(C)(c3ccc(C#N)cc3)C2=O)cc1 (racemic) | 4.73
59 | CC1(c2ccc(S(N)(=O)=O)cc2)NC(=O)N(CC(=O)c2ccc(F)c(C(F)(F)F)c2)C1=O (racemic) | 4.24
60 | COC(=O)c1ccc(C2(C)NC(=O)N(CC(=O)c3ccc(F)cc3F)C2=O)cc1 (racemic) | 4.84
61 | CC1(c2ccc(C#N)cc2)NC(=O)N(CC(=O)c2cccnc2)C1=O (racemic) | 1.16
62 | CC1(c2ccc(S(N)(=O)=O)cc2)NC(=O)N(CC(=O)c2ccc(F)cc2)C1=O (racemic) | 3.03
63 | CC1(c2ccc(NS(=O)(=O)c3ccccc3)cc2)NC(=O)N(CC(=O)c2ccc(F)cc2F)C1=O (racemic) | 4.9
64 | CC1(c2ccc(S(N)(=O)=O)cc2)NC(=O)N(CC(=O)c2ccccc2F)C1=O (racemic) | 2.94
65 | CC1(c2ccc(C#N)cc2)NC(=O)N(CC(=O)c2ccccc2)C1=O (racemic) | 4.19
66 | CC1(c2ccc(S(N)(=O)=O)cc2)NC(=O)N(CC(=O)C2CCCCC2)C1=O (racemic) | 3.62
67 | CC1(c2ccc(S(N)(=O)=O)cc2)NC(=O)N(CC(=O)c2ccc(C#N)cc2)C1=O (racemic) | 2.54
68 | CC1(c2ccc(S(=O)(=O)N3CCOCC3)cc2)NC(=O)N(CC(=O)c2ccc(F)cc2F)C1=O (racemic) | 4.39
69 | CC1(c2ccc(S(N)(=O)=O)cc2)NC(=O)N(CC(=O)c2ccc(F)c(F)c2)C1=O (racemic) | 3.34
70 | CC1(c2ccc(S(N)(=O)=O)cc2)NC(=O)N(CC(=O)c2cc(C(F)(F)F)cc(C(F)(F)F)c2)C1=O (racemic) | 4.9
71 | CC1(c2ccc(S(N)(=O)=O)cc2)NC(=O)N(CC(=O)c2cccc(Br)c2)C1=O (racemic) | 3.77

assay: Intrinsic clearance in mouse microsomes assessed as per gram protein at 0.5 uM after 30 mins in presence of NADPH by LC-MS/MS analysis; format: ADME, Microsome; conditions: 0.5 h

Row | Compound | clearance
72 | CC1(c2ccc(S(N)(=O)=O)cc2)NC(=O)N(CC(=O)c2ccc(F)cc2F)C1=O (racemic) | 2.67 mL/min/g

assay: Intrinsic clearance in human microsomes assessed as per gram protein at 0.5 uM after 30 mins in presence of NADPH by LC-MS/MS analysis; format: ADME, Microsome; conditions: 0.5 h

Row | Compound | clearance
73 | CC1(c2ccc(S(N)(=O)=O)cc2)NC(=O)N(CC(=O)c2ccc(F)cc2F)C1=O (racemic) | < 0.4 mL/min/g

assay: Cmax in C57BL/6J mouse blood infected with Mycobacterium tuberculosis H37Rv at 200 mg/kg, po administered once daily for 4 consecutive days starting from 5 days post infection; format: ADME, organism-based; parameters: dose 200 mg/kg, route oral; conditions: not given

Row | Compound | Cmax
74 | CC1(c2ccc(S(N)(=O)=O)cc2)NC(=O)N(CC(=O)c2ccc(F)cc2F)C1=O (racemic) | 6380 ng/mL

assay: Cmax in C57BL/6J mouse blood infected with Mycobacterium tuberculosis H37Rv at 170 mg/kg, po administered once daily for 4 consecutive days starting from 5 days post infection; format: ADME, organism-based; parameters: dose 170 mg/kg, route oral; conditions: not given

Row | Compound | Cmax
75 | CC1(c2ccc(-n3cnnn3)cc2)NC(=O)N(CC(=O)c2ccc(F)cc2F)C1=O (configuration not stated) | 1870 ng/mL

assay: AUC in C57BL/6J mouse blood infected with Mycobacterium tuberculosis H37Rv at 200 mg/kg, po administered once daily for 4 consecutive days starting from 5 days post infection and measured after 24 hrs post dose; format: ADME, organism-based; parameters: dose 200 mg/kg, time < 24 hr, route oral; conditions: not given

Row | Compound | AUC at 24 h
76 | CC1(c2ccc(S(N)(=O)=O)cc2)NC(=O)N(CC(=O)c2ccc(F)cc2F)C1=O (racemic) | 31400 ng·h/mL

assay: AUC in C57BL/6J mouse blood infected with Mycobacterium tuberculosis H37Rv at 170 mg/kg, po administered once daily for 4 consecutive days starting from 5 days post infection and measured up to 6 hrs post dose; format: ADME, organism-based; parameters: time < 6 hr, dose 170 mg/kg, route oral; conditions: not given

Row | Compound | AUC at 6 h
77 | CC1(c2ccc(-n3cnnn3)cc2)NC(=O)N(CC(=O)c2ccc(F)cc2F)C1=O (configuration not stated) | 6380 ng·h/mL
